Several values for one entry are separate records, joined by “and”; a condition that tells them apart may be missing. Equal entries are not always repeated.
Assay: solvent given as SMILES

N#C/C(=C\c1ccc(Cl)cc1)c1nc2ccccc2s1
absorption maximum (in C1CCCCC1): 350 nm
absorption maximum (in CO): 350 nm

Nc1ccc(C#Cc2ccc3ccc4ccc(C#Cc5ccc(NS(=O)(=O)c6ccc([N+](=O)[O-])cc6[N+](=O)[O-])cc5)c5ccc2c3c45)cc1
absorption maximum (in CO): 406 nm

Ic1ccc(-c2c3ccc(=[N+]4CCCCC4)cc-3oc3cc(N4CCCCC4)ccc23)cc1
absorption maximum (in CCO): 568 nm
absorption maximum (in ClCCl): 570 nm

O=C1c2cc(-c3ccccc3)ccc2-c2ccc(-c3ccccc3)cc21
absorption maximum (in C1CCOC1): 337 nm

COc1c2ccccc2c(-c2ccccc2)c2ccccc12
absorption maximum (in C1COCCO1): 378 nm
absorption maximum (in CCCCCC): 378 nm
absorption maximum (in CCCCCCC): 376 nm
absorption maximum (in CCCCO): 378 nm
absorption maximum (in CCO): 378 nm
absorption maximum (in CN(C)C=O): 378 nm
absorption maximum (in Cc1ccccc1): 378 nm
absorption maximum (in ClC(Cl)(Cl)Cl): 376 nm
absorption maximum (in ClC(Cl)Cl): 378 nm
absorption maximum (in ClCCl): 378 nm
absorption maximum (in OCC(O)CO): 378 nm
absorption maximum (in OCCO): 379 nm

O=Cc1ccc(-c2ccc(C3=CCC(c4ccccc4)CC3)s2)s1 (stereo unspecified)
absorption maximum (in C1CCOC1): 385 nm
absorption maximum (in CC#N): 385 nm
absorption maximum (in CCCCCC): 380 nm
absorption maximum (in CCO): 389 nm
absorption maximum (in OCCOCCO): 389 nm
absorption maximum (in c1ccncc1): 393 nm

C#CCn1c2ccccc2c2cc(/C=C/C3=[N+]4C(=C(c5ccc(I)cc5)c5c(C)c(Cl)c(/C=C/c6ccc7c(c6)c6ccccc6n7CC#C)n5[B-]4(F)F)C(C)=C3Cl)ccc21
absorption maximum (in CC#N): 694 nm
absorption maximum (in CS(C)=O): 705 nm
absorption maximum (in ClC(Cl)Cl): 703 nm

c1ccc2c(c1)-c1ccccc1C21c2ccccc2-c2c1c1c3ccccc3ccc1c1ccccc21
absorption maximum (in C1CCOC1): 377 nm

Clc1ccc(/C=C(\c2ccccc2)c2nc3ccccc3s2)cc1
absorption maximum (in C1CCCCC1): 340 nm
absorption maximum (in CO): 340 nm

Cc1cc(C)n2c1C=C1C(=O)N(C)C(c3ccc([N+](=O)[O-])cc3)=[N+]1[B-]2(F)F
absorption maximum (in CCCCCC): 498 nm

Cc1ccc2c(c1)nc1c(=O)n(C)c(=O)nc-1n2C
absorption maximum (in CC#N): 446 nm

c1ccc(N(c2ccccc2)c2ccc(-c3ccc4c(c3)C3(c5ccccc5Oc5ccccc53)c3cc(-c5ccc(N(c6ccccc6)c6ccccc6)cc5)ccc3-4)cc2)cc1
absorption maximum (in ClCCl): 372 nm

O=[N+]([O-])c1cc(C=C(C#Cc2ccccc2)C#Cc2ccccc2)ccc1C=C(C#Cc1ccccc1)C#Cc1ccccc1
absorption maximum (in ClC(Cl)Cl): 413 nm

N#CC(C#N)=C(c1cccc(N(c2ccccc2)c2ccccc2)c1)c1cccc(N(c2ccccc2)c2ccccc2)c1
absorption maximum (in C1CCCCC1): 367.69 nm
absorption maximum (in CC(C)=O): 371.43 nm
absorption maximum (in CN(C)C=O): 374.84 nm
absorption maximum (in Cc1ccccc1): 374.84 nm
absorption maximum (in ClC(Cl)Cl): 382.14 nm

COc1ccccc1C1=NC2c3cccc4cccc(c34)C2N1c1ccccc1 (stereo unspecified)
absorption maximum (in Cc1ccccc1): 312 nm

COc1cc(-c2nc3c4cccnc4c4ncccc4c3[nH]2)c(OC)cc1/C=C/c1nc2ccccc2[nH]1
absorption maximum (in C1CCOC1): 401 nm
absorption maximum (in CC#N): 398 nm
absorption maximum (in CO): 391 nm
absorption maximum (in ClCCl): 400 nm

N#CC(C#N)=Cc1cn(-c2ccccc2)nc1-c1ccc([N+](=O)[O-])cc1
absorption maximum (in C1CCOC1): 346 nm
absorption maximum (in C1COCCO1): 346 nm
absorption maximum (in CCO): 346 nm
absorption maximum (in CCOC(C)=O): 346 nm
absorption maximum (in CN(C)C=O): 347 nm
absorption maximum (in CO): 345 nm
absorption maximum (in CS(C)=O): 343 nm
absorption maximum (in Cc1ccccc1): 356 nm
absorption maximum (in ClC(Cl)Cl): 352 nm

C(#Cc1ccc(C#Cc2ccccc2)cc1)c1ccccc1
absorption maximum (in ClC(Cl)Cl): 328 nm

Brc1ccc(-c2pc3ccccc3s2)cc1 (stereo unspecified)
absorption maximum (in CC#N): 337 nm

F[B-]1(F)n2c(c(Sc3ccccc3)c3c2-c2ccccc2CC3)C=C2C(Sc3ccccc3)=C3CCc4ccccc4C3=[N+]21
absorption maximum (in CC#N): 640 nm

CC(C)(C)c1ccc(-c2sc3c(-c4ccc(C(C)(C)C)cc4)c4n(c3c2-c2ccc(C(C)(C)C)cc2)[B-](F)(F)[N+]2=Cc3c(-c5ccc(C(C)(C)C)cc5)c5sc(-c6ccc(C(C)(C)C)cc6)c(-c6ccc(C(C)(C)C)cc6)c5n3[B-](F)(F)[N+]2=C4)cc1
absorption maximum (in CC#N): 574 nm
absorption maximum (in CCCCCC): 591 nm
absorption maximum (in CN(C)C=O): 584 nm
absorption maximum (in Cc1ccccc1): 596 nm
absorption maximum (in ClCCl): 591 nm

COc1ccc(C2=C3C=c4c(oc5cc6c(cc45)[C@H]4CC[C@]5(C)C(=O)CC[C@H]5[C@@H]4CC6)=[N+]3[B-](F)(F)n3c2cc2c4cc5c(cc4oc23)CC[C@@H]2[C@@H]5CC[C@]3(C)C(=O)CC[C@@H]23)cc1
absorption maximum (in CCOC(C)=O): 596.5 nm
absorption maximum (in CCOCC): 596.5 nm
absorption maximum (in CO): 595.5 nm

Cc1cc(-c2nc(-c3ccccc3)nc(-c3ccccc3)n2)ccc1N1c2ccccc2C2(c3ccccc3-c3ccccc32)c2ccccc21
absorption maximum (in Cc1ccccc1): 394.19 nm

B1C=Cc2ccc3ccccc3c2N1
absorption maximum (in C1CCCCC1): 351 nm

O=c1c2ccccc2n(-c2ccc(-c3ccc(N(c4ccccc4)c4ccccc4)cc3)cc2)c2ccccc12
absorption maximum (in ClCCl): 394 nm

CCC1=C(C)C2=C(/C=C/c3ccc(OC)cc3)c3c(C)c(CC)c(C)n3[B-](F)(F)[N+]2=C1C
absorption maximum (in ClCCl): 529 nm

CCOC(=O)c1ccccc1-c1c2ccc(=O)cc-2oc2cc(OC(=O)[C@H](CO[Si](C)(C)C(C)(C)C)NC(=O)OC(C)(C)C)ccc12
absorption maximum (in C1CCOC1): 428 nm
absorption maximum (in CC#N): 445 nm
absorption maximum (in CCO): 433 nm
absorption maximum (in CS(C)=O): 449 nm

Cc1cc(=O)[nH]c(=O)[nH]1
absorption maximum (in CC#N): 256 nm

C[n+]1ccc(/C=C/c2ccc(N(c3ccccc3)c3ccc(/C=C/c4cc[n+](C)cc4)cc3)cc2)cc1
absorption maximum (in ClCCl): 402 nm
absorption maximum (in O): 509 nm
absorption maximum (in OCC(O)CO): 496 nm

CCCn1c2cccc3oc4cccc5c4[c+](c32)c2c1cccc2n5CCC
absorption maximum (in CC#N): 557 nm

N#Cc1cc(-n2c3ccccc3c3ccccc32)c(-n2c3ccccc3c3ccccc32)cc1C#N
absorption maximum (in C1CCOC1): 368 nm
absorption maximum (in CC#N): 367 nm
absorption maximum (in Cc1ccccc1): 375 nm
absorption maximum (in ClCCl): 364 nm

Cc1cc(O)c(C(=O)/C=C/c2ccc([N+](=O)[O-])cc2)c(=O)o1
absorption maximum (in CC#N): 358 nm
absorption maximum (in ClCCl): 361 nm

CCN(CC)c1ccc2cc(/C=C/C3=C4CC/C(=C\c5cc6ccc(N(CC)CC)cc6oc5=O)C4=[O+][B-](F)(F)O3)c(=O)oc2c1
absorption maximum (in C1COCCO1): 629 nm
absorption maximum (in CC#N): 655 nm
absorption maximum (in CC(C)=O): 653 nm
absorption maximum (in CCOC(C)=O): 636 nm
absorption maximum (in CN(C)C=O): 673 nm
absorption maximum (in CS(C)=O): 690 nm
absorption maximum (in Cc1ccccc1): 629 nm
absorption maximum (in ClC(Cl)Cl): 644 nm
absorption maximum (in ClCCl): 653 nm

CC(C)C[Si](C#Cc1c2c(=O)c3ccccc3c2c(C#C[Si](CC(C)C)(CC(C)C)CC(C)C)c2c(=O)c3ccccc3c12)(CC(C)C)CC(C)C
absorption maximum (in ClC(Cl)Cl): 524 nm

Nc1ccccc1C(=O)O
absorption maximum (in C1CCCCC1): 338 nm
absorption maximum (in C1COCCO1): 338 nm
absorption maximum (in CC#N): 336 nm
absorption maximum (in CC(C)=O): 336 nm
absorption maximum (in CCO): 334 nm
absorption maximum (in CO): 334 nm
absorption maximum (in CS(C)=O): 342 nm
absorption maximum (in O): 290 nm and 310 nm
absorption maximum (in OCC(F)(F)F): 320 nm
absorption maximum (in c1ccccc1): 340 nm

F[B-]1(F)N(c2ccccc2)c2cccc3ccc4ccc[n+]1c4c23
absorption maximum (in ClCCl): 465 nm

CCOC(=O)c1c(-c2cc3ccc(OCC=C(C)C)cc3oc2=O)nn(-c2ccccc2)c1C(=O)OCC
absorption maximum (in ClCCl): 341 nm

CN(C)c1ccc2c(c1)C(=O)c1ccccc1-2
absorption maximum (in C1CCCCC1): 484 nm
absorption maximum (in CC#N): 510 nm
absorption maximum (in CCO): 509 nm
absorption maximum (in c1ccccc1): 507 nm

N#Cc1c[nH]c2ccccc12
absorption maximum (in C1COCCO1): 277.3 nm
absorption maximum (in CC#N): 276.25 nm

O=c1cc(-c2nc3ccccn3c2NC2CCCCC2)occ1OCc1ccccc1
absorption maximum (in ClCCl): 357 nm

CCCCCCCCCCCCOc1ccc(C2=C3C(=O)N(CC(OCC)OCC)C(c4ccc(OCCCCCCCCCCCC)c(OCCCCCCCCCCCC)c4)=C3C(=O)N2CC(OCC)OCC)cc1OCCCCCCCCCCCC
absorption maximum (in ClC(Cl)Cl): 496 nm

Cc1ccc(C2=C3C=CC(Sc4ccccc4)=[N+]3[B-](F)(F)n3c(Sc4ccccc4)ccc32)cc1
absorption maximum (in C1CCOC1): 577 nm

C1=CN2C[n+]3cccc(OCc4ccccc4)c3N=C2C(OCc2ccccc2)=C1
absorption maximum (in CO): 450 nm

COCCOCCOCCOCCOc1ccc(OCCOCCOCCOCCOC)c(C=O)c1
absorption maximum (in CC(C)(C)O): 350 nm
absorption maximum (in CC(C)CO): 350 nm
absorption maximum (in CC(C)O): 349 nm
absorption maximum (in CCCCO): 349 nm
absorption maximum (in CCCO): 349 nm
absorption maximum (in CCO): 349 nm
absorption maximum (in CN(C)C=O): 350 nm
absorption maximum (in CNC=O): 349 nm
absorption maximum (in CO): 349 nm
absorption maximum (in NC=O): 352 nm
absorption maximum (in O): 351 nm

CCC(=O)c1ccc2cc(N(C)C)ccc2c1
absorption maximum (in C1CCCCC1): 342 nm and 343 nm
absorption maximum (in C1CCOC1): 346 nm
absorption maximum (in C1COCCO1): 348 nm
absorption maximum (in CC#N): 347 nm and 368 nm
absorption maximum (in CC(C)=O): 350 nm
absorption maximum (in CC(C)O): 367 nm
absorption maximum (in CCC(C)=O): 367 nm
absorption maximum (in CCCCCC): 338 nm
absorption maximum (in CCCCCCC): 343 nm
absorption maximum (in CCCCCCCCO): 360 nm
absorption maximum (in CCN(CC)CC): 343 nm
absorption maximum (in CCO): 362 nm and 369 nm
absorption maximum (in CCOC(C)=O): 352 nm
absorption maximum (in CN(C)C=O): 350 nm
absorption maximum (in CO): 362 nm
absorption maximum (in CS(C)=O): 359 nm and 369 nm
absorption maximum (in Cc1ccccc1): 345 nm and 349 nm
absorption maximum (in ClC(Cl)Cl): 358 nm
absorption maximum (in ClCCl): 355 nm and 358 nm
absorption maximum (in Clc1ccccc1): 254 nm and 354 nm
absorption maximum (in O): 364 nm
absorption maximum (in OCC(O)CO): 370 nm
absorption maximum (in OCCO): 375 nm
absorption maximum (in c1ccccc1): 355 nm

CCCCN1C(=O)C2=C(c3ccc(Br)cc3)NC(=O)C2=C1c1ccc(Br)cc1
absorption maximum (in ClCCl): 477 nm
